According to article PMC12041525, “Mechanistic studies of mycobacterial glycolipid biosynthesis by the mannosyltransferase PimE” (Nature Communications, 2025):

Target: T1, MaPimE (Mycobacteroides abscessus, UniProt A0ABD7HTP3)
T1 construct: gene D2E76_03800; full-length WT, His-tagged, pNYCOMPSC23, E. coli BL21(DE3) pLysS; membrane fraction (kinetics) or DDM-purified in MSP1E3D1/POPC nanodiscs with Fab-E6 (cryo-EM); 46 kDa
Test: cryo-EM structure of the complex, […] Å
Format: binding
Details: nanodisc, Fab-E6 bound; formed from added PPM; only first three prenyl units resolved

T1 sequence (A0ABD7HTP3 entry or part of it): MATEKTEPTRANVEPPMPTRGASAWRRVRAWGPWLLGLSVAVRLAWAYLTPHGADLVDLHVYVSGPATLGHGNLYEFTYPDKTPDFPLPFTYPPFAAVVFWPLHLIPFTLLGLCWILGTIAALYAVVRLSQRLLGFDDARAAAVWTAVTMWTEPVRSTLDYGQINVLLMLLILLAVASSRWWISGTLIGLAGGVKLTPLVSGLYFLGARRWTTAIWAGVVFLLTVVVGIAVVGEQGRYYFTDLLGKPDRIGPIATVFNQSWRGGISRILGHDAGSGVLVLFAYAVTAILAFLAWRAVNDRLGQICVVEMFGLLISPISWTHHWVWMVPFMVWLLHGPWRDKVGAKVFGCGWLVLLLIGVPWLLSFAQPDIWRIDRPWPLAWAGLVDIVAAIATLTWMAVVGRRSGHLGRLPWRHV

`CC(C)=CCC/C(C)=C/CC/C(C)=C\CC/C(C)=C\CC/C(C)=C\CC/C(C)=C\CC/C(C)=C\CC/C(C)=C\CC/C(C)=C\CC/C(C)=C\COP(=O)(O)O` [PP, polyprenyl phosphate] was tested, and the “cryo-EM structure of the complex, 3.5 Å” value was “led us to interpret it as the PP portion of the PPM donor”.
